Patent publication US11414439B2, “Modulators of cystic fibrosis transmembrane conductance regulator, pharmaceutical compositions, methods of treatment, and process for making the modulator” (Vertex Pharmaceuticals Incorporated, priority 2018, dated 2022)

Tested on: CFTR
Test: CFTR modulating activity (Table 6; one or more of the disclosed assays, e.g. enteroid membrane potential dye assay); note: key: Active; ND-not detected
Type: cell-based, human
Conditions: generated using one or more of the assays disclosed herein
Source text: Human intestinal epithelial enteroid cells may be obtained from the Hubrecht Institute for Developmental Biology and Stem Cell Research, Utrecht, The Netherlands and expanded in T-Flasks as previously described (Dekkers J F, Wiegerinck C L, de Jonge H R, Bronsveld I, Janssens H M, de Winter-de Groot K M, Brandsma A M, de Jong N W M, Bijvelds M J C, Scholte B J, Nieuwenhuis E E S, van den Brink S, Clevers H, van der Ent C K, Middendorp S and M Beekman J M. A functional CFTR assay using primary cystic fibrosis intestinal organoids. Nat Med. 2013 July; 19(7):939-45).
Cells may be recovered in cell recovery solution, collected by centrifugation at 650 rpm for 5 min at 4° C., resuspended in TryPLE and incubated for 5 min at 37° C. Cells can then be collected by centrifugation at 650 rpm for 5 min at 4° C. and resuspended in IEMM containing 10 μM ROCK inhibitor (RI). The cell suspension is then passed through a 40 μm cell strainer and resuspended at 1×10^6 cells/mL in IEMM containing 10 μM RI. Cells may be seeded at 5000 cells/well into multi-well plates and incubated for overnight at 37° C., 95% humidity and 5% CO2 prior to assay.
Enteroid cells may be incubated with test compound in IEMM for 18-24 hours at 37° C., 95% humidity and 5% CO2. Following compound incubations, a membrane potential dye assay can be employed using a FLIPR Tetra to directly measure the potency and efficacy of the test compound on CFTR-mediated chloride transport following acute addition of 10 μM forskolin and 300 nM N-[2,4-bis(1,1-dimethylethyl)-5-hydroxyphenyl]-1,4-dihydro-4-oxoquinoline-3-carboxamide. Briefly, cells are washed 5 times in Bath 1 Buffer. Bath 1 Dye Solution is added and the cells are incubated for 25 min at room temperature. Following dye incubation, cells are washed 3 times in Chloride Free Dye Solution. Chloride transport is initiated by addition of Chloride Free Dye Stimulation Solution and the fluorescence signal is read for 15 min. The CFTR-mediated chloride transport for each condition may be determined from the AUC of the fluorescence response to acute forskolin and 300 nM N-[2,4-bis(1,1-dimethylethyl)-5-hydroxyphenyl]-1,4-dihydro-4-oxoquinoline-3-carboxamide stimulation.
Chloride transport may be expressed as a percentage of the chloride transport following treatment with one or more reference standards or positive controls. Suitable reference standards/controls include one or more of Compound II, Compound III, Compound IV, and Compound A. Compound A is:
Table 6 confirms CFTR modulating activity for representative compounds of the invention generated using one or more of the assays disclosed herein.

SMILES | CFTR Modulating Activity
Cc1nn(C)cc1S(=O)(=O)NC(=O)c1ccc([Si](C)(C)C)nc1N1C[C@@H](C)CC1(C)C [Compound (2-5), N-(1,3-dimethylpyrazol-4-yl)sulfonyl-2-[(4S)-2,2,4-trimethylpyrrolidin-1-yl]-6-trimethylsilyl-pyridine-3-carboxamide] | Active
Cc1nn(C)cc1S(=O)(=O)NC(=O)c1ccc(-n2ccc([Si](C)(C)C(C)(C)C)n2)nc1N1C[C@@H](C)CC1(C)C [Compound (2-10), 6-[3-[tert-Butyl(dimethyl)silyl]pyrazol-1-yl]-N-(1,3-dimethylpyrazol-4-yl)sulfonyl-2-[(4S)-2,2,4-trimethylpyrrolidin-1-yl]pyridine-3-carboxamide] | Active
Cc1nn(C)cc1S(=O)(=O)NC(=O)c1ccc(-n2ccc([Si](C)(C)CCC(C)(C)C)n2)nc1N1C[C@@H](C)CC1(C)C [Compound (2-1), 6-[3-[3,3-Dimethylbutyl(dimethyl)silyl]pyrazol-1-yl]-N-(1,3-dimethylpyrazol-4-yl)sulfonyl-2-[(4S)-2,2,4-trimethylpyrrolidin-1-yl]pyridine-3-carboxamide] | Active
Cc1nn(C)cc1S(=O)(=O)NC(=O)c1ccc(-n2ccc(OC[Si](C)(C)C(C)(C)C)n2)nc1N1C[C@@H](C)CC1(C)C [Compound (2-11), 6-[3-[[tert-Butyl(dimethyl)silyl]methoxy]pyrazol-1-yl]-N-(1,3-dimethylpyrazol-4-yl)sulfonyl-2-[(4S)-2,2,4-trimethylpyrrolidin-1-yl]pyridine-3-carboxamide] | Active
Cc1nn(C)cc1S(=O)(=O)NC(=O)c1ccc(-n2ccc(OCC(C)(C)C(F)(F)F)n2)nc1N1CC([Si](C)(C)C)CC1(C)C (single isomer, unassigned) [(2-8) Enantiomer 2] | Active
Cc1nn(C)cc1S(=O)(=O)NC(=O)c1ccc(-n2ccc([Si](C)(C)CCC(F)(F)F)n2)nc1N1C[C@@H](C)CC1(C)C [Compound (2-7), N-(1,3-Dimethylpyrazol-4-yl)sulfonyl-6-[3-[dimethyl(3,3,3-trifluoropropyl)silyl]pyrazol-1-yl]-2-[(4S)-2,2,4-trimethylpyrrolidin-1-yl]pyridine-3-carboxamide] | Active
Cc1nn(C)cc1S(=O)(=O)NC(=O)c1ccc(-n2ccc(OCC(C)(C)C(F)(F)F)n2)nc1N1C[C@@H](C)CC1(C)[Si](C)(C)C (single isomer, unassigned) [(2-9) Stereoisomer 1] | Active
Cc1nn(C)cc1S(=O)(=O)NC(=O)c1ccc(-n2ccc(OCCC[Si](C)(C)C)n2)nc1N1C[C@@H](C)CC1(C)C [Compound (2-6), N-(1,3-Dimethylpyrazol-4-yl)sulfonyl-2-[(4S)-2,2,4-trimethylpyrrolidin-1-yl]-6-[3-(3-trimethylsilylpropoxy)pyrazol-1-yl]pyridine-3-carboxamide] | Active
Cc1nn(C)cc1S(=O)(=O)NC(=O)c1ccc(-n2ccc(OCC[Si](C)(C)C)n2)nc1N1C[C@@H](C)CC1(C)C [Compound (2-4), N-(1,3-dimethylpyrazol-4-yl)sulfonyl-2-[(4S)-2,2,4-trimethylpyrrolidin-1-yl]-6-[3-(2-trimethylsilylethoxy)pyrazol-1-yl]pyridine-3-carboxamide] | Active
Cc1nn(C)cc1S(=O)(=O)NC(=O)c1ccc(-n2ccc(OC[Si](C)(C)C)n2)nc1N1C[C@@H](C)CC1(C)C [Compound (2-3), N-(1,3-Dimethylpyrazol-4-yl)sulfonyl-2-[(4S)-2,2,4-trimethylpyrrolidin-1-yl]-6-[3-(trimethylsilylmethoxy)pyrazol-1-yl]pyridine-3-carboxamide] | Active
Cc1nn(C)cc1S(=O)(=O)NC(=O)c1ccc(-n2ccc(OCCC3([Si](C)(C)C)CC3)n2)nc1N1C[C@@H](C)CC1(C)C [Compound (2-2), N-(1,3-dimethylpyrazol-4-yl)sulfonyl-2-[(4S)-2,2,4-trimethylpyrrolidin-1-yl]-6-[3-[2-(1-trimethylsilylcyclopropyl)ethoxy]pyrazol-1-yl]pyridine-3-carboxamide] | Active
Cc1nn(C)cc1S(=O)(=O)NC(=O)c1ccc(-n2ccc([Si](C)(C)C)n2)nc1N1C[C@@H](C)CC1(C)C [Compound (2-12), N-(1,3-Dimethylpyrazol-4-yl)sulfonyl-2-[(4S)-2,2,4-trimethylpyrrolidin-1-yl]-6-(3-trimethylsilylpyrazol-1-yl)pyridine-3-carboxamide] | Active
